The target in assay [1] is T1, TthSHMT (Thermus thermophilus, UniProt Q5SI56).
T1 construct: gene glyA; recombinant in E. coli BL21(DE3), codon-optimized glyA, N-terminal His6-tag with linker removed by TEV, starts at Ser3; homodimer, active site formed by residues of both protomers
The assay is described as follows: joint room-temperature X-ray/neutron crystallography, crystal soak. The assay is classed as binding. The conditions noted are these: pH 5.5, 500 mM; D2O H/D exchange; labelled compound; noncovalent pre-Michaelis complex in peripheral site, protomer A, sulfate in substrate site.

The target of assay [2] is T1, TthSHMT. The assay is described as follows: joint room-temperature X-ray/neutron crystallography. The assay is classed as binding. The following applies: pH 5.5; covalent; Schiff base with Lys226 (internal aldimine).

Each structure is given as a SMILES string.

T1 sequence (Q5SI56 3-407): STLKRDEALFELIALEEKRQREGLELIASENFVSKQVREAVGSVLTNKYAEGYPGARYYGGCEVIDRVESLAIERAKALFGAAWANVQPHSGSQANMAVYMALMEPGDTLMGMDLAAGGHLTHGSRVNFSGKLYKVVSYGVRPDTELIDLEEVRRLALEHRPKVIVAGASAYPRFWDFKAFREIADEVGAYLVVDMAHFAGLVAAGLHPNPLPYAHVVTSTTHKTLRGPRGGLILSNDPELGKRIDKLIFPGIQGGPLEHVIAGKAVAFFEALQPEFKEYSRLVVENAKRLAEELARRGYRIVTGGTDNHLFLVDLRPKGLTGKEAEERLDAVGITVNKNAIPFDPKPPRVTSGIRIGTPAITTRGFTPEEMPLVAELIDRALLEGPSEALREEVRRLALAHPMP

Take `N[C@@H](CO)C(=O)O` [L-Ser-d7]: the “joint room-temperature X-ray/neutron crystallography, crystal soak” value at TthSHMT [1] is “we observed L-Ser-d7 bound in a pocket on the periphery of the active site”.

Consider `Cc1ncc(COP(=O)(O)O)c(C=O)c1O` [PLP], for which the “joint room-temperature X-ray/neutron crystallography” value at TthSHMT [2] is on record as “In TthSHMT, PLP is covalently bound to Lys226 (Lys280 in hSHMT2) through a Schiff base”.
